The source made the active and inactive calls. No cut-off for these calls is given here.

The results in this text go back to ChEMBL document CHEMBL1140847, “Spectroscopic and calorimetric studies on the DNA recognition of pyrrolo[2,1-c][1,4]benzodiazepine hybrids” (Bioorg Med Chem, 2009).

The nature of assay [1]: Binding affinity to oligonucleotide duplex DNA D2a at 6.6 uM by circular dichroism.
Assay [2] can be described thus: Binding affinity to oligonucleotide hairpin duplex DNA D2d at 26 uM by UV titration experiment.
The nature of assay [3]: Binding affinity to oligonucleotide duplex DNA D8 at drug-duplex molar ratio of 2:1 assessed as change in melting temperature by UV melting experiment.
Assay [4] can be described thus: Binding affinity to oligonucleotide hairpin duplex DNA D2d by isothermal titration calorimetry.
Assay [5] in a line: Binding affinity to oligonucleotide duplex DNA D4 at drug-duplex molar ratio of 2:1 assessed as change in melting temperature by UV melting experiment.
Assay [6] can be described thus: Binding affinity to oligonucleotide duplex DNA D2e at drug-duplex molar ratio of 2:1 assessed as change in melting temperature by UV melting experiment.
A short description of assay [7]: Binding affinity to oligonucleotide duplex DNA D2a at drug-duplex molar ratio of 2:1 assessed as change in melting temperature by UV melting experiment.
Assay [8] in a line: Binding affinity to oligonucleotide duplex DNA D3 at drug-duplex molar ratio of 2:1 assessed as change in melting temperature by UV melting experiment.
The nature of assay [9]: Binding affinity to oligonucleotide duplex DNA D7 at drug-duplex molar ratio of 2:1 assessed as change in melting temperature by UV melting experiment.
The nature of assay [10]: Binding affinity to oligonucleotide duplex DNA D2c at drug-duplex molar ratio of 2:1 assessed as change in melting temperature by UV melting experiment.
Assay [11] in a line: Binding affinity to oligonucleotide hairpin duplex DNA D2d by fluorescence titration experiment.
A short description of assay [12]: Binding affinity to oligonucleotide duplex DNA D6 at drug-duplex molar ratio of 2:1 assessed as change in melting temperature by UV melting experiment.
The nature of assay [13]: Binding affinity to oligonucleotide duplex DNA D2b at drug-duplex molar ratio of 2:1 assessed as change in melting temperature by UV melting experiment.
The nature of assay [14]: Binding affinity to oligonucleotide duplex DNA D1 at drug-duplex molar ratio of 2:1 assessed as change in melting temperature by UV melting experiment.
Assay [15] can be described thus: Binding affinity to oligonucleotide duplex DNA D5 at drug-duplex molar ratio of 2:1 assessed as change in melting temperature by UV melting experiment.
Assay [16] is described as follows: Binding affinity to oligonucleotide duplex DNA D2a at 10 uM by circular dichroism.

As to `COc1cc2c(cc1OCCCN1CCN(CCN3C(=O)c4cccc5cccc(c45)C3=O)CC1)N=C[C@@H]1CCCN1C2=O`, the result in assay [1] and in assay [2] was Active. Besides, the ΔTm in assay [3] came out at 35 °C; in assay [5], 36.8 °C; in assay [6] it was 35 °C; in assay [7], 34 °C; in assay [8], 39.5 °C; in [9], 31.5 °C. For the same compound, the ΔTm came out at 6.5 °C in assay [10]; 37.3 °C in assay [12]; 34.3 °C in [13]; 9 °C in assay [14]; 30.3 °C in [15]. Further, the Ka in [4] stood at 7.8 ×10⁵ /M; in [11] it was 3.8 ×10⁶ /M.
Turning to `COc1cc2c(cc1OCCCOc1ccc(-c3nc4ccc(N5CCN(C)CC5)cc4[nH]3)cc1)N=C[C@@H]1CCCN1C2=O`, the result in [2] and in assay [16] was Active. Besides, the ΔTm in assay [3] was 0 °C; in assay [5], 34.3 °C; in assay [6], 37 °C; in [7], 33 °C; in [9], 27 °C; in assay [10] it was 9 °C. The ΔTm is 34.5 °C in assay [12], 39 °C in [13], 10 °C in assay [14] and 32.5 °C in [15]. The results for the Ka in assay [4] and in [11] were 8.9 ×10⁵ /M and 5.6 ×10⁶ /M, respectively.
